In ChEMBL document CHEMBL1201862, “PubChem BioAssay data set” (2004):
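Compound exposure: 48 hours, 5 concentrations, 96-well plates. GI50: concentration for 50% inhibition of growth.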 Active and inactive are the calls of the source. Cut-off read from the data, not from the text of the source: active = GI50 up to about 1.1 µM and inactive = higher.

Legend:
Test in all cases: growth of human tumour cells (NCI), 48 h
HOP-62 = system: HOP-62
SN12C = system: SN12C
OVCAR-5 = system: OVCAR-5
MDA-N = system: MDA-N
Hs-578T = system: Hs-578T
OVCAR-3 = system: OVCAR-3
SW-620 = system: SW-620
HL-60 = system: HL-60
MDA-MB-435 = system: MDA-MB-435
K562 = system: K562
SK-MEL-5 = system: SK-MEL-5
RXF 393 = system: RXF 393
HCC 2998 = system: HCC 2998
SF-539 = system: SF-539
SNB-19 = system: SNB-19
NCI-H226 = system: NCI-H226
A498 = system: A498
MDA-MB-231 = system: MDA-MB-231
SK-OV-3 = system: SK-OV-3

Measured: GI50

CCOC(=O)/C(C(=S)NCc1ccccc1)=C(/N)N1CCCC1
inactive: HOP-62 > 100 µM | SN12C > 100 µM | OVCAR-5 > 100 µM | MDA-N > 100 µM | Hs-578T > 100 µM | OVCAR-3 > 100 µM | SW-620 > 100 µM | HL-60 > 100 µM | MDA-MB-435 > 100 µM | K562 > 100 µM | SK-MEL-5 > 100 µM | RXF 393 > 100 µM | HCC 2998 > 100 µM | SF-539 > 100 µM | SNB-19 > 100 µM | NCI-H226 > 100 µM | A498 > 100 µM | MDA-MB-231 > 100 µM

COc1ccc(/C=C2\N=C3NC(=O)C(N4CCOCC4)=C(N)N3C2=O)cc1
inactive: SN12C > 100 µM | OVCAR-5 > 100 µM | MDA-N > 100 µM | Hs-578T 35.7 µM | SW-620 > 100 µM | HL-60 48.9 µM | MDA-MB-435 > 100 µM | K562 6.7 µM | SK-MEL-5 > 100 µM | SK-OV-3 > 100 µM | RXF 393 46.7 µM | HCC 2998 > 100 µM | SF-539 > 100 µM | SNB-19 96.8 µM | NCI-H226 > 100 µM | A498 > 100 µM | MDA-MB-231 > 100 µM

COc1cc(Nc2nnc3n2S(=O)(=O)c2cc(C)c(Cl)cc2S3)cc(OC)c1
inactive: HOP-62 11.9 µM | SN12C 24.8 µM | OVCAR-5 62.2 µM | MDA-N 4.68 µM | Hs-578T 14.2 µM | OVCAR-3 5.19 µM | HL-60 8.69 µM | MDA-MB-435 4.28 µM | K562 13.2 µM | SK-MEL-5 9.29 µM | SK-OV-3 14.2 µM | RXF 393 10.5 µM | HCC 2998 6.18 µM | SF-539 2.12 µM | SNB-19 13.3 µM | NCI-H226 16.4 µM | A498 19.1 µM | MDA-MB-231 19.9 µM

CN1CCN(Cn2nc(COc3ccccc3Cl)n(/N=C/c3ccc(-c4ccc(Cl)cc4Cl)o3)c2=S)CC1
inactive: HOP-62 21.4 µM | OVCAR-5 35.6 µM | MDA-N 23.5 µM | Hs-578T 84.1 µM | OVCAR-3 21.7 µM | SW-620 16.1 µM | HL-60 24.8 µM | MDA-MB-435 24.8 µM | K562 21.3 µM | SK-MEL-5 24.8 µM | SK-OV-3 35.5 µM | RXF 393 17.3 µM | HCC 2998 19.6 µM | SF-539 27 µM | NCI-H226 51.5 µM | A498 19.1 µM | MDA-MB-231 26.4 µM
